Test results as given in patent US20070060558A1 (PALUMED S.A., priority 2004, published 2007).
Values after ≈ are worked out from the molar mass of the structure shown. Where a name gives a salt, the structure may show the parent alone. Read-outs that look alike come from different tables or passages of the source. Values belong to the compound of their own block, whether it stands above or below them.

Key:
[1] = system: S. pneumoniae PRSP clinical isolate; experiment: Antibacterial activity (MIC/MBC); type: cell-based, Streptococcus pneumoniae; settings: Streptococcus pneumoniae, PRSP, read-out: MIC
S. pneumoniae mefE = experiment: Antibacterial activity (MIC); type: cell-based; settings: Streptococcus pneumoniae; S. pneumoniae mefE (macrolide-resistant by efflux)
[2] = system: S. pneumoniae PSSP CQI 201; experiment: Antibacterial activity (MIC); type: cell-based, Streptococcus pneumoniae; settings: for MIC: Streptococcus pneumoniae, S. pneumoniae PSSP CQI 201, read-out: MIC
[3] = system: Staphylococcus aureus MSSA CIP 4.83; experiment: Antibacterial activity (MIC/MBC); type: cell-based; settings: Staphylococcus aureus
S. pyogenes CIP 56.41T = experiment: Antibacterial activity (MIC/MBC); type: cell-based, Streptococcus pyogenes; settings: Streptococcus pyogenes, CIP56; S. pyogenes CIP 56.41T; read-out: MIC
[4] = system: S. aureus MRSA clinical isolate; experiment: Antibacterial activity (MIC); type: cell-based, Staphylococcus aureus; settings: Staphylococcus aureus; S. aureus MRSA clinical isolate; read-out: MIC
[5] = system: B. thuringiensis CIP 104676; experiment: Antibacterial activity (MIC); type: cell-based; settings: Bacillus thuringiensis, CIP104676
E. coli CIP 54127 = experiment: Antibacterial activity (MIC); type: cell-based; settings: Escherichia coli, CIP54127
S. pneumoniae PRSP = experiment: Antibacterial activity (MIC), Table VII; type: cell-based; settings: Streptococcus pneumoniae
[6] = system: E. faecalis VRE CIP 104676; experiment: Antibacterial activity (MIC/MBC); type: cell-based, Enterococcus faecalis; settings: Enterococcus faecalis
S. aureus NorA 1199B = experiment: Antibacterial activity (MIC); type: cell-based, Staphylococcus aureus
P. aeruginosa CIP 103467 = experiment: Antibacterial activity (MIC); type: cell-based; settings: Pseudomonas aeruginosa, CIP103467
B. subtilis CIP 5262 = experiment: Antibacterial activity (MIC); type: cell-based; settings: Bacillus subtilis, CIP5262
H. influenzae CIP 102514 = experiment: Antibacterial activity (MIC/MBC); type: cell-based, Haemophilus influenzae; settings: Haemophilus influenzae, CIP102514
[7] = system: S. epidermidis MSCNS (D10); experiment: Antibacterial activity (MIC); type: cell-based; settings: Staphylococcus epidermidis; S. epidermidis MSCNS (D10); read-out: MIC
[8] = system: S. epidermidis MRCNS (E93); experiment: Antibacterial activity (MIC); type: cell-based; settings: Staphylococcus epidermidis; S. epidermidis MRCNS (E93); read-out: MIC
[9] = system: E. faecium VRE VanA CIP107387; experiment: Antibacterial activity (MIC); type: cell-based; settings: Enterococcus faecium; E. faecium VRE VanA CIP107387; read-out: MIC
[10] = system: S. aureus VISA CIP 106757; experiment: Antibacterial activity (MIC); type: cell-based; settings: Staphylococcus aureus; S. aureus VISA CIP 106757; read-out: MIC
C. difficile CIP 104282 = experiment: Antibacterial activity (MIC); type: cell-based, Clostridium difficile; settings: Clostridioides difficile, CIP104282; C. difficile CIP 104282; read-out: MIC
[11] = system: S. pneumoniae PRSP (CQR 162); experiment: Antibacterial activity (MIC); type: cell-based; settings: Streptococcus pneumoniae; S. pneumoniae PRSP (CQR 162); read-out: MIC
[12] = system: Staphylococcus aureus MSSA 53.154; experiment: Murine experimental septicaemia, in vivo efficacy; set-up: species or system mice; settings: sc, mice, subcutaneously at 1 and 6 h post infection, survival on day 9, hybrid molecules formulated in water as their bis(hydrochloride) salt, read-out: ED50
Procedure: Experimental septicaemia was induced in mice as follows. Briefly, male Swiss OF1 mice (IFFA CREDO-Charles River) weighing 18 to 20 grams were infected intraperitoneally with 0.5 mL of a bacterial suspension containing 8.5×10^7 cfu of Staphylococcus aureus MSSA 53.154 (Institut Pasteur). The hybrid molecules were administered subcutaneously at 1 and 6 h post infection. Control and treatment groups at each dose were composed of seven mice. All the infected but untreated control mice died within 9 days. The 50% effective dose (ED50) values were calculated by a computerized program (GraphPad) from the survival rates on day 9 after infection.

S. aureus MsrA PUL 5054 = experiment: Antibacterial activity (MIC); type: cell-based; settings: Staphylococcus aureus
[13] = system: Human lung fibroblast cells (ATCC CCL-171); experiment: Cytotoxicity (MTT) assay; settings: human, 18 hr
Procedure: Cellular toxicity was measured by a colorimetric assay that makes use of the tetrazolium salt, MTT. Human lung fibroblast cells (ATCC CCL-171) were plated in 96-well plates at 10^4 cells per well and incubated under 5% CO2 at 37° C. for 24 hr to allow adherence of cells to the plate. Test compounds were prepared as a stock solution at 1 mg/mL in 1% DMSO/water and diluted with water for the serial dilutions (500-7.8 μg/mL). Cells underwent a 18 hr treatment under 5% CO2 at 37° C. with experimental drugs. Corresponding controls received either no drug treatment or treatment with SDS (sodium dodecyl sulfate). The optical density of each sample was read on a microplate spectrophotometer reader at 600 nm and cell survival was expressed as a fraction of that of untreated controls. A drug is said cytotoxic when this fraction is ≦−30%

[14] = system: E. faecalis VRE VanA CIP106996; experiment: Antibacterial activity (MIC); type: cell-based; settings: Enterococcus faecalis; E. faecalis VRE VanA CIP106996; read-out: MIC
[15] = system: E. faecalis VRE VanB CIP106998; experiment: Antibacterial activity (MIC); type: cell-based; settings: Enterococcus faecalis; E. faecalis VRE VanB CIP106998; read-out: MIC
B. fragilis API 7716 = experiment: Antibacterial activity (MIC); type: cell-based; settings: Bacteroides fragilis, API7716
[16] = S. aureus MSSA CIP 4.83, read-out: MIC
[17] = Staphylococcus aureus, NORA1199B

- MIC [1]: > 5 µg/mL
- MIC (S. pneumoniae mefE): 1.25 µg/mL (≈ 1.29 µM)
- MIC [2]: 0.005 µg/mL (≈ 0.00517 µM)
- MIC [3, 16]: 0.156 µg/mL (≈ 0.161 µM)
- MIC (S. pyogenes CIP 56.41T): 0.078 µg/mL (≈ 0.0806 µM)
- MIC [4]: 0.31 µg/mL (≈ 0.32 µM)
Compound: CC[C@@H]1OC(=O)[C@H](C)[C@H](OC2CC(C)(OC)C(O)C(C)O2)[C@@H](C)[C@@H](OC2OC(C)CC(N(C)C)C2O)[C@](C)(O)C[C@@H](C)/C(=N\OCCCNc2ccnc3cc(Cl)ccc23)[C@@H](C)[C@H](O)[C@]1(C)O (stereo partly shown) [PA 1169, 10{O-[3-(7-Chloroquinolin-4-ylamino)-propyl]-oxime}-erythromycin]
- gain in activity (factor) ([2]; Streptococcus pneumoniae PSSP, versus macrolide residue): 8

Compound: O=C(O)c1cn(C2CC2)c2cc(N3CCNCC3)c(F)cc2c1=O [Ciprofloxacin, reference compound]
- MIC ([5]; B. thuringiensis CIP 104676, read-out: MIC): 0.156 µg/mL (≈ 0.471 µM)
- MIC (E. coli CIP 54127; E. coli CIP 54127, read-out: MIC): 0.01 µg/mL (≈ 0.0302 µM)
- MIC (S. pneumoniae PRSP; S. pneumoniae PRSP (Table VII), read-out: MIC): 1.25 µg/mL (≈ 3.77 µM)
- MIC ([6]; E. faecalis VRE CIP 104676, read-out: MIC): 1.25 µg/mL (≈ 3.77 µM)
- MIC (S. aureus NorA 1199B; S. aureus NorA 1199B (quinolone-resistant by efflux)): >50 µg/mL
- MIC (S. aureus NorA 1199B; [17]): > 50 µg/mL
- MIC [3, 16]: 0.312 µg/mL (≈ 0.942 µM)
- MIC (P. aeruginosa CIP 103467; P. aeruginosa CIP 103467, read-out: MIC): 0.156 µg/mL (≈ 0.471 µM)
- MIC (B. subtilis CIP 5262; B. subtilis CIP 5262, read-out: MIC): 0.04 µg/mL (≈ 0.121 µM)
- MIC (H. influenzae CIP 102514; H. influenzae CIP 102514, read-out: MIC): 0.1 µg/mL (≈ 0.302 µM)

Compound: CN[C@H](CC(C)C)C(=O)N[C@H]1C(=O)N[C@@H](CC(N)=O)C(=O)N[C@H]2C(=O)N[C@H]3C(=O)N[C@H](C(=O)N[C@H](C(=O)O)c4cc(O)cc(O)c4-c4cc3ccc4O)[C@H](O)c3ccc(c(Cl)c3)Oc3cc2cc(c3OC2OC(CO)C(O)C(O)C2OC2CC(C)(NCCCCNc3ccnc4cc(Cl)ccc34)C(O)C(C)O2)Oc2ccc(cc2Cl)[C@H]1O (stereo partly shown) [PA 1158, N-4-[4(7-Chloroquinolin-4-ylamino)-butyl]-vancomycin]
- MIC [7]: 0.1 µg/mL (≈ 0.0595 µM)
- MIC [8]: 0.05 µg/mL (≈ 0.0297 µM)
- MIC [9]: 25 µg/mL (≈ 14.9 µM)
- MIC [10]: 0.39 µg/mL (≈ 0.232 µM)
- MIC (C. difficile CIP 104282): 0.078 µg/mL (≈ 0.0464 µM)
- MIC [2]: 0.012 µg/mL (≈ 0.00713 µM)
- MIC [11]: 0.025 µg/mL (≈ 0.0149 µM)
- ED50 [12]: 0.26 mg/kg
- MIC [3, 16]: 0.1 µg/mL (≈ 0.0595 µM)
- MIC (S. aureus MsrA PUL 5054): < 0.045 µg/mL
- MIC (S. pyogenes CIP 56.41T): 0.062 µg/mL (≈ 0.0369 µM)
- % of survival cells compared to the untreated controls ([13]; 7.8 μg/mL): −11.8%
- % of survival cells compared to the untreated controls ([13]; 15.6 μg/mL): −13.2%
- % of survival cells compared to the untreated controls ([13]; 31.2 μg/mL): −10.7%
- % of survival cells compared to the untreated controls ([13]; 62.5 μg/mL): −16.9%
- % of survival cells compared to the untreated controls ([13]; 125 μg/mL): −16.9%
- % of survival cells compared to the untreated controls ([13]; 250 μg/mL): −19.8%
- % of survival cells compared to the untreated controls ([13]; 500 μg/mL): −18.4%
- MIC [4]: 0.2 µg/mL (≈ 0.119 µM)
- MIC [14]: 6.25 µg/mL (≈ 3.72 µM)
- MIC [15]: 6.25 µg/mL (≈ 3.72 µM)

Compound: O=C(O)c1cn(C2CC2)c2cc(N3CCN(c4ccnc5cc(Cl)ccc45)CC3)c(F)cc2c1=O [hydrochloride]
- MIC [5]: 0.156 µg/mL
- MIC (E. coli CIP 54127): 0.612 µg/mL
- MIC (S. pneumoniae PRSP; PRSP): 0.078 µg/mL
- MIC [6]: 0.078 µg/mL
- fold more active than the sub-structure from which it comes (S. aureus NorA 1199B; S. aureus NorA, versus ciprofloxacin): 280
- MIC (S. aureus NorA 1199B; [17]): 0.18 µg/mL
- MIC [3]: 0.156 µg/mL
- MIC (P. aeruginosa CIP 103467): 5 µg/mL
- MIC (B. subtilis CIP 5262): < 0.001 µg/mL
- MIC (H. influenzae CIP 102514): 0.312 µg/mL

- MIC (B. fragilis API 7716): 0.2 µg/mL (≈ 1.17 µM)
Compound: Cc1ncc([N+](=O)[O-])n1CCO [Metronidazole, reference compound]
